# Laboratory results taken from patent publication US11219209B2, “Method of reducing crop damage” (Bayer Aktiengesellschaft, priority 2018, dated 2022).
# Tests used:
# Format in all cases: in vivo
# [1] = test system: winter wheat, TRZAW; experiment: Method A: safener seed treatment, herbicide post-emergence, greenhouse crop damage test; details: safener seed treatment 0.5 g/kg only, no herbicide
# Experimental: (§1) For the safener seed treatment, sufficient seeds were weighed into screw top glass bottles approximately twice the volume of the seeds.
# (§2) The safener (mefenpyr-diethyl, formulated as suspension concentrate (SC)) was weighed out so that the required rates (g a.i./kg seed) would be obtained, dissolved in water (1 ml water per 10 g of seeds), and added to the seeds to produce a slurry.
# (§3) The bottles were capped and then placed in an overhead shaker (set at medium speed for up to 1 hour) so that the seeds were evenly coated with the slurry. The bottles were uncapped and the seeds were sown as described above.
# (§4) For the seed treatment process, the blind formulation (the SC formulation without the safener mefenpyr-diethyl) was used as seed treatment as described above.
# Post-emergence application of the herbicide was done when the plants had reached growth stage BBCH11.
# (§5) After application, the test plants were kept in the greenhouse under good growth conditions.
# (§6) Values in the table below are mean values from at least 3 replicates.
# [2] = test system: winter wheat, TRZAW; experiment: Method C: safener seed treatment, herbicide and safener tank mix post-emergence, greenhouse crop damage test; details: no herbicide
# Experimental: as §1, §2, §3, §4
# Post-emergence application was done when the plants had reached growth stage BBCH11.
# The safener (mefenpyr-diethyl) was formulated as wettable powder (WP).
# The compounds were sprayed onto the green parts of the plants as an aqueous suspension at an equivalent water application rate of 300 l/ha.
# (§7) The combination of herbicide and safener was applied as a tank mix.
# as §5, §6
# [3] = test system: winter wheat, TRZAW; experiment: Method D: safener seed treatment, herbicide and safener tank mix pre-emergence, greenhouse crop damage test; details: no herbicide
# Experimental: as §1, §2, §3, §4
# The compounds were sprayed to the soil surface as an aqueous suspension at an equivalent water application rate of 300 l/ha.
# as §7, §5, §6
# [4] = safener seed treatment 0.5 g/kg only
smiles,measurement,setting,value
"CCOC(=O)C1=NN(c2ccc(Cl)cc2Cl)C(C)(C(=O)OCC)C1 (centres unmarked) [Safener seed treatment, ethyl 1-(2,4-dichlorophenyl)-5-(ethoxycarbonyl)-5-methyl-2-pyrazoline-3-carboxylate]",% crop damage,[1],0%
same,% crop damage,"[2]; safener 200 g/ha in tank mix only, post-emergence, 14 days after application",5%
same,% crop damage,[2]; [4],0%
same,% crop damage,"[3]; safener 200 g/ha in tank mix only, pre-emergence, 14 days after application",5%
same,% crop damage,[3]; [4],2%
